In patent US10759796B2, “CXCR4 inhibitors and uses thereof” (X4 Pharmaceuticals, Inc., priority 2016, dated 2020):
Read-outs that look alike come from different tables or passages of the source.

Key:
[1] = Fraction of drug unbound to plasma proteins, mouse; assay type: in vitro ADME; conditions: Mouse plasma proteins (Table 10); read-out: Fu (p) %
[2] = Fraction of drug unbound to brain proteins, mouse; assay type: in vitro ADME; conditions: Mouse brain proteins (Table 10); read-out: Fu (b) %
in vitro = conditions: human, Caco-2, pH 7.4
Summary of the method: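 Compounds at 10 μM in HBSS pH 7.4 (0.1–0.3% DMSO) were dosed on Caco-2 monolayers, apical-to-basolateral and basolateral-to-apical, for 90 min at 37 °C, in duplicate. Monolayer integrity was checked by TEER and lucifer yellow flux, read by fluorescence at 485/535 nm. Compound was quantified by LC-MS/MS and Papp calculated.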

[3] = biological target: Jurkat cells expressing CXCR4 (Homo sapiens (Human), UniProt P61073); experiment: Chemokine (CXCL12-AF647) binding inhibition assay; conditions: CXCL12-AF647 25 ng/mL, read-out: IC50 CXCL-12 binding Jurkat
Jurkat cells expressing CXCR4, sequence (P61073 whole entry): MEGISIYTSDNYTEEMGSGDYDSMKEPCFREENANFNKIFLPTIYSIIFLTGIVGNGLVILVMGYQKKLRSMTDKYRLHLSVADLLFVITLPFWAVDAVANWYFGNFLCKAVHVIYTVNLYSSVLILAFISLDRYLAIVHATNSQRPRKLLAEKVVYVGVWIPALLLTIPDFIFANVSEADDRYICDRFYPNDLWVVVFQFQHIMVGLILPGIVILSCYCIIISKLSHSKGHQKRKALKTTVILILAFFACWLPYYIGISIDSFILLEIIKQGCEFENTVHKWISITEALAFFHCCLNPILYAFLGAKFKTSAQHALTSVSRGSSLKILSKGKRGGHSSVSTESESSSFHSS
Summary of the method: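 Cells in HBSS, 20 mM HEPES, 0.2% BSA, pH 7.4, preincubated 15 min at room temperature with compound, then 25 ng/mL CXCL12-AF647 for 30 min. After washing and paraformaldehyde fixation, bound ligand read by flow cytometry; percent inhibition calculated from MFI relative to unlabeled and ligand-only controls.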

[4] = Mouse brain uptake assay, 0-24 h, 4 time points; assay type: in vivo; conditions: male, 3 mg/kg IV, 4 time points; for Kp / Kp uu: CD1, brain and plasma; for Kp / Kp uu / clearance / half-life: Mouse; for clearance / half-life: CD1, plasma; for half-life: read-out: t½ (converted)
Experimental: The study design (9 animals) consisted of administrating the drug (IV: 3 mg/kg (5 mL/kg) via tail vein injection) and collecting samples at terminal bleeding for plasma and brain at 0.083, 0.5 and 1 h. The blood collection was performed as follows: the animal was restrained manually and approximately 150 μL blood/time point was collected into a dipotassium EDTA tube via retro orbital puncture under anesthesia with isoflurane. The blood sample was put on ice and centrifuged to obtain a plasma sample (2000 g, 5 min under 4° C.) within 15 minutes. The brain collection was performed as follows: a mid-line incision was made in the animal's scalp and the skin was retracted. Using small bone cutters and rongeurs, the skull overlying the brain was removed. The brain was removed using a spatula and the brain rinsed with cold saline. The brain was placed in screw-top tubes, and the tubes were stored at −70° C. until analysis. The IV dosing solution was prepared in 50 mM citrate buffer (pH 4.0) at 0.6 mg/mL.
An aliquot of 30 μL sample was added to 150 μL MeCN containing 50 ng/mL IS (Dexamethasone). The mixture was vortexed for 5 min and centrifuged at 14,000 rpm for 5 min. An aliquot of 5 μL supernatant was injected for LC-MS/MS analysis.
An aliquot of 30 μL brain homogenate (brain:PBS=1:3, w/v) sample was added to 150 μL IS in ACN (Dexamethasone, 50 ng/mL). The mixture was vortexed for 5 min and centrifuged at 14,000 rpm for 5 min. An aliquot of 5 μL supernatant was injected for LC-MS/MS analysis.
The sample analysis was performed on LCMS/MS-003 (API4000, triple quadruple) under the following conditions: positive ion, ESI, MRM detection using dexamethasone as internal standard. HPLC conditions: mobile phase A: H2O (0.025% formic acid (FA) with 1 mM NH4OAc); mobile phase B: MeOH (0.025% FA with 1 mM NH4OAc) on Waters X-Bridge C18 (2.1×50 mm, 2.5 μm) column at 60° C.
A similar experiment was performed with 4 time points taken from 0-24 h.

[5] = biological target: CXCR-4 transfected U87 cell line (U87.CXCR4) (Homo sapiens (Human), UniProt P61073); experiment: Intracellular CXCL-12-induced calcium mobilization assay (FLIPR); assay type: cell-based; conditions: U87.CXCR4 cells, CXCL-12 25-50 ng/mL; read-out: IC50 CXCL-12 Ca2+ flux U87.CXCR4+
CXCR-4 transfected U87 cell line (U87.CXCR4), sequence (P61073 whole entry): as above
Summary of the method: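 U87.CXCR4 cells were seeded at 20,000 per well, cultured 12 hours, then loaded with 4 μM Fluo-2 AM for 45 min at 37° C. in HBSS with 20 mM HEPES and 0.2% BSA, pH 7.4. Calcium flux triggered by CXCL-12 (25-50 ng/mL) was tracked over time by FLIPR fluorescence at 37° C.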

[6] = CD1, Mouse brain, read-out: AUClast (b)
[7] = CD1, Mouse plasma, read-out: AUClast (p)

Compound	fraction unbound [1]	fraction unbound [2]	Papp A→B at 90 min, 10 μM (in vitro) [nm/s]	Papp B→A at 90 min, 10 μM (in vitro) [nm/s]	efflux ratio at 90 min, 10 μM (in vitro)	IC50 [3] [nM]	AUC(0-t) [4, 6] [µg·h/mL]	AUC(0-t) [4, 7] [µg·h/mL]	Kp [4]	Kp uu [4]	clearance [4] [L/h/kg]	half-life [4] [h]	IC50 [5] [nM]
Cc1cccnc1[C@H]1CCC[C@@H](c2nc3ccccn3c2-c2ccncc2)N1 [Compound I-207]			100 to 300	> 300	0.1 to 10	≥ 1000							≥ 1000
Cc1cccnc1[C@@H]1CCC[C@H](c2cn3c(N4CCNC5(CC5)C4)cccc3n2)N1 [Compound I-190]			1 to 100	> 300	10 to 30	100 to 1000							≥ 1000
COc1cccnc1[C@@H]1CCC[C@H](c2nc3cccc(N4CCNC5(CC5)C4)n3c2Cl)N1 [Compound I-175]			1 to 100	100 to 300	0.1 to 10	≥ 1000							≥ 1000
COc1cccnc1[C@@H]1CCC[C@H](c2nc3cccc(N4CCN(C)CC4)n3c2Cl)N1 [Compound I-173]			1 to 100	100 to 300	0.1 to 10	100 to 1000							≥ 1000
CN1CCN(c2cccc3nc([C@H]4CCC[C@@H](c5ncccc5C5CC5)N4C)cn23)CC1 [Compound I-79]			1 to 100	100 to 300	0.1 to 10	0.01 to 100							0.01 to 100
CCN1CCN(c2cccc3nc([C@H]4CCC[C@@H](c5ncccc5C)N4C)c(COC(C)C)n23)CC1 [Compound I-60]			1 to 100	100 to 300	0.1 to 10	0.01 to 100							0.01 to 100
CN1C2CCC1CN(c1cccc3nc([C@H]4CCC[C@@H](c5ncccc5Cl)N4C)c(CO)n13)C2 [Compound I-135]			1 to 100	100 to 300	0.1 to 10	0.01 to 100							0.01 to 100

Further lines, results first:

fraction unbound [1]	fraction unbound [2]	Papp A→B at 90 min, 10 μM (in vitro) [nm/s]	Papp B→A at 90 min, 10 μM (in vitro) [nm/s]	efflux ratio at 90 min, 10 μM (in vitro)	IC50 [3] [nM]	AUC(0-t) [4, 6] [µg·h/mL]	AUC(0-t) [4, 7] [µg·h/mL]	Kp [4]	Kp uu [4]	clearance [4] [L/h/kg]	half-life [4] [h]	IC50 [5] [nM]	Compound
0.047	0.004	100 to 300	100 to 300	0.1 to 10	0.01 to 100	13.7	2.13	6.41	0.54	1.32	6.42	0.01 to 100	Cc1c([C@@H]2CCC[C@H](c3ncccc3Cl)N2)nc2cccc(N3CCN(C)CC3)n12 (stereo in doubt) [Compound I-193]
0.039	0.006	100 to 300	100 to 300	0.1 to 10	0.01 to 100	32.3	1.48	21.8	3.35	2.01	3.56	0.01 to 100	CCOCc1c([C@H]2CCC[C@@H](c3ncccc3Cl)N2C)nc2cccc(N3CCN(C)CC3)n12 [Compound I-117]
0.026	0.005	1 to 100	1 to 100	0.1 to 10	0.01 to 100	26.9	1.4	19.2	3.68	2.12	3.96	0.01 to 100	CN1CCN(c2cccc3nc([C@H]4CCC[C@@H](c5ncccc5Cl)N4C)c(Cl)n23)CC1 [Compound I-115]
		100 to 300	100 to 300	0.1 to 10	0.01 to 100							100 to 1000	CCN1CCN(c2cccc3nc([C@H]4CCC[C@@H](c5ncccc5Cl)N4C)cn23)CC1 [Compound I-151]
		1 to 100	> 300	> 30	0.01 to 100							0.01 to 100	Cc1cccnc1[C@@H]1CCC[C@H](c2nc3ccccn3c2CN2CCN(C)CC2)N1C [Compound I-38]
